Entries after “also recorded” stand apart in the source; their conditions may differ. One block for each compound: values may come before it.
What was measured:
human sEH = target: T1, human sEH (Homo sapiens, UniProt P34913); assay: Inhibition of recombinant human sEH, IC50 assay with 4-nitrophenyl-trans-2,3-epoxy-3-phenylpropyl carbonate as substrate; assay type: biochemical; details: Table 2; […] enzyme, 5 min preincubation, pH 7.4, 30° C.; means ± SD; read-out: IC50 (μM) Human sEH
T1 construct: made in house; host or cells: baculovirus expression system
T1 sequence (P34913 1-555): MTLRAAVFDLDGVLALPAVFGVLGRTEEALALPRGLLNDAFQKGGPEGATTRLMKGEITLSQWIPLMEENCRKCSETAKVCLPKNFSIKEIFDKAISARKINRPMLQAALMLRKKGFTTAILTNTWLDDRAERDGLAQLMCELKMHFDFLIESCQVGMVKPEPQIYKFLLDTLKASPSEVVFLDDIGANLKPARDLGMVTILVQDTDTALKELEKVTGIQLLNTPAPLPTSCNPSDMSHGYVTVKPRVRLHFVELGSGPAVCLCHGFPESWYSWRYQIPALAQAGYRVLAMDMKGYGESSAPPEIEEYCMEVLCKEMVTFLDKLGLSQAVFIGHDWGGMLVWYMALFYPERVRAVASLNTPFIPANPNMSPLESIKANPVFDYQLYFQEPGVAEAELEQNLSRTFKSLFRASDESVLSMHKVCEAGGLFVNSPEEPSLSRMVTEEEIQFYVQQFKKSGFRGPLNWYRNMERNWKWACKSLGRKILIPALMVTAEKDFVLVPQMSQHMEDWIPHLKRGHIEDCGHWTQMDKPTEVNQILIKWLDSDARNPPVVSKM
Procedure: Assays were performed in triplicate. […] The curve was generated from at least three separate runs, each in triplicate, to obtain the standard deviation (SD) given in Table 1 thru Table 4.

[1] = Cream on index finger of a patient with Raynaud syndrome before cold exposure; assay type: in vivo, human; details: cream applied to a finger before cold exposure
Procedure: The experimental design involved preparing the Vanicream solutions with ethanol with or without active compound, then covering the syringe barrels with aluminum foil. The compounds were applied in a bind fashion approximately 20 minutes before exposure and then the hands were exposed to cold for approximately 30 minutes and the results recorded. The following day the results were decoded. Treatments (left or right index finger) were random. […] The test compounds were dissolved in ethanol at a concentration of 10 mg/mL and this in turn mixed with commercial Vanicream at a 10:1 concentration to give 1 mg/mL final concentration of active ingredient in the Vanicream/ethanol mixture. Approximately 100 μL of cream (±sEH inhibitor) were applied to a single finger. The first two columns indicate that over a range of exposure conditions the results from the left and right […] were similar. […] Since the experiment was run blind, the left and right index fingers were treated in a random fashion. For convenience the treatments are shown on the right in each case. […]

[2] = Pharmacokinetics of 687 and 800 in a human subject; assay type: in vivo; details: FIG. 11; single oral administration of either 687 or 800 to a human subject
Procedure: (§1) Serial bled blood samples (3-50 μL) were collected from finger tips into 50 μL heparinized capillary tube at various time points (0.5, 1, 2, 4, 6, 12 and 24 hr) after administration. These samples were used to measure parent compounds and their metabolites using LC-MS/MS as described above for experiments with mice. Blood samples were added 400 μL of distilled water and 25 μL of internal standard (500 ng/mL CTU), and vortexed. The blood samples were then extracted with 500 μL of ethyl acetate twice and the ethyl acetate layer was dried under nitrogen. The residue was reconstituted in 25 μL of methanol, and aliquots (10 μL) were injected onto the LC-MS/MS system as described above. Biological end points came from clinical chemistry samples run at The University of California Davis Clinical Laboratory and a series of 6 inflammatory markers including C reactive protein were run blind at the University of California Davis Department of Nephrology.

[3] = Metabolic stability in rat hepatic microsomes with NADPH generating system; assay type: in vitro ADME; details: 1 μM, NADPH generating system, FIGS. 6 and 7
Procedure: FIG. 6 is a graph illustrating the metabolic stabilities of 1-adamantyl-3-dodecyl urea (686) and 1-cyclohexyl-3-dodecyl urea (297) in rat hepatic microsomes. Microsomes were incubated with 1 μM 686 or 297 in the presence of an NADPH generating system. Data are expressed as mean ±SD of triplicate experiments.
To evaluate the metabolic stability of these inhibitors, the microsomal and NADPH dependent metabolism of a number of potent sEH inhibitors was evaluated. […] The first step in the metabolic transformation of the n-alkyl to n-alkanoic acid derivatives is an NAPDH dependent process carried out by cytochrome P450 dependent omega hydroxylation in rodent and human hepatic tissue preparations (see FIG. 8). When in vivo metabolism was evaluated, evidence for the beta-oxidation of the alkanoic acid derivatives was also found (see FIG. 9).

[4] = tested on: linoleate and arachidonate derived epoxides and diols; assay: Urinary oxylipins in angiotensin II infused rats; assay type: in vivo, rat; details: ANGII infused Sprague-Dawley rats, subcutaneous injection, urine 24 hr post exposure, LC/MS/MS
Text: In this example, hypertension was induced in one group of Sprague-Dawley rats by the infusion of angiotensin II (ANGII).

[5] = Pharmacokinetics after oral gavage in mice; assay type: in vivo, mouse; details: 5 mg/kg orally
Procedure: Animals. Male Swiss Webster mice, 6 weeks-old, were obtained from Charles River (Calif., USA). […] The body weight of animals used in all the experiments ranged from 28 g to 38 g. […] Administration and measurement. […] Then the samples were centrifuged at 6000 rpm for 5 min, and the ethyl acetate layer was dried under nitrogen. The residue was reconstituted in 25 μL of methanol, and aliquots (5 μL) were injected onto the LC-MS/MS system. Analysis. Pharmacokinetics analysis was performed using SigmaPlot software system (SPSS science, Chicago, Ill.). […] AUC=a/b Where: • C=the total blood concentration at time t • a=the extrapolated zero intercept b=the apparent first-order elimination rate constant

[6] = Blood concentration after oral administration of 950 and AUDA-nBE, human pharmacokinetic profile; assay type: in vivo
Procedure: FIG. 16 provides a sample preparation procedure for a pharmacokinetic study. A 5 μl whole blood sample was drawn into a capillary at a specific time point, each sample was extracted and anaylzed by LC/MS-MS. […] AUDA is the active metabolite of AUDA-nBE. […] 0.05 mg/kg. (B). 0.1 mg/kg. […] The compounds were administered at the same time in the same formulation. […] 21 mg (0.3 mg/kg) 950 and AUDA-nBE were orally administrated with starch. (B). 7 mg (0.1 mg/kg) formulated 950 and AUDA-NBE were taken with (HPMC, starch and lactose). (C). […] 950 with HPMC and Starch. (B). 950 in lactose and HPMC. […] HPMC forms a gel which slowly erodes; lactose enhances erosion at it moves through the gut and starch retards it. These formulations are combined, ball milled, and then placed in ‘0’ capsule and not compressed.

[7] = Oral AUDA butyl ester (800) in a patient with end stage renal disease: clinical chemistry, C reactive protein, blood pressure; assay type: in vivo, human
Procedure: as §1, with “These” for “Serial bled blood samples (3-50 μL) were collected from finger tips into 50 μL heparinized capillary tube at various time points (0.5, 1, 2, 4, 6, 12 and 24 hr) after administration. These”

[8] = assay type: in vitro ADME, rat and human
Text: Both rat and human microsomes were used for the 950 metabolism study.

SMILES: CCCCCCCCCCCCNC(=O)NC1CCCCC1 [Compound 297, 1-cyclohexyl-3-dodecyl urea, reference compound]
- IC50 (human sEH): 0.14 ± 0.01 µM
- effect on Raynaud's symptoms [1]: reduces severity of Raynaud's symptoms

- maximum circulating concentration of 687, humans compared with mice [2]: much higher in humans
- metabolic stability in microsomal preparations [3]: stable
- time to reach the maximum concentration [5]: 30 min
SMILES: O=C(O)CCCCCCCCCCCNC(=O)NC12CC3CC(CC(C3)C1)C2 [Compound 687, 1-(1-adamantyl)-3-(12-dodecanoic acid)urea]
- urinary diol concentrations (DHOMEs, DHETs) [4]: decrease in diol concentrations
- urinary epoxides (EpOMEs, EETs) [4]: increase in urinary epoxides

SMILES: CCCCOC(=O)CCCCCCCCCCCNC(=O)NC12CC3CC(CC(C3)C1)C2 [Compound 800, 1-(1-Adamantyl)-3-(11-butoxycarbonylundecyl)urea]
- Cmax ([6]; FIG. 23, 7mg each in tristerate (0.1 mg/kg) orally, human): rather high Cmax
- performance of simple dry formulations ([6]; FIG. 26, starch, HPMC/starch/lactose or lactose, 0.1-0.3 mg/kg orally): very poorly
- absorption depending on formulation ([6]; FIGS. 23 and 26, oral, human, listed as AUDA-BE): only absorbed efficiently in a lipid formulation; also recorded: bioavailable in lipid formulations
- serum profile of regulatory lipids ([7]; patient approaching ESRD, brief oral treatment with low doses): altered the serum profile of regulatory lipids in a positive manner
- Creatinine ([7]; same trial, ESRD without drug 5.0, normal 0.5-1.3): 4.9 mg/dL

- T1/2 compared with AUDA-BE ([6]; human, in vivo, po, 0.1 mg/kg): longer T1/2
- pharmacokinetics ([6]; in vivo): improved pharmacokinetics
SMILES: CCOCCOCCOCCCCCNC(=O)NC12CC3CC(CC(C3)C1)C2 [Compound 950]
- major metabolite in vitro [8]: hydroxy metabolite was the major metabolite

Source: patent US20050164951A1, “Inhibitors for the soluble epoxide hydrolase” (The Regents of the University of California, priority 2003, published 2005)
